TGI and GI50 data for nine molecules are collected here from PubChem BioAssay (NCI).

Test systems include HCT-116 colon; ACHN renal; CCRF-CEM leukemia; RPMI-8226 leukemia; EKVX NSCLC; LOX IMVI melanoma; NCI-H460 lung; NCI-H23 lung; SN12C renal; SK-OV-3 ovarian; OVCAR-8 ovarian; U251 CNS; SNB-75 CNS; HOP-92 NSCLC.
Assay in all cases: NCI-60 cell line screen, 48 h

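Values below derive from 48-hour exposures of cells grown in 96-well plates, with endpoints linearly interpolated between the two concentrations bracketing the appropriate inhibition level. GI50 is the concentration that inhibits growth by half. TGI denotes the concentration required for complete inhibition of growth.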 Where only a bound is given, the exact number is not on record here.

`CCOC(=O)C1(C#N)C(c2ccccc2)CC(O)(c2ccc([N+](=O)[O-])cc2)C(C(=O)c2ccc([N+](=O)[O-])cc2)C1c1ccccc1` (stereo not given): the TGI in the assay with HCT-116 colon, in the assay with ACHN renal, in the assay with CCRF-CEM leukemia, with RPMI-8226 leukemia, in the assay on EKVX NSCLC and with LOX IMVI melanoma was > 100 µM each time. For the same molecule, the TGI in the assay on NCI-H460 lung, in the assay on NCI-H23 lung, with SN12C renal, in the assay with SK-OV-3 ovarian, in the assay on OVCAR-8 ovarian and with U251 CNS was > 100 µM throughout. In the assay on SNB-75 CNS, the TGI worked out at 96.5 µM.

In the case of `CCOc1cc2ccc3c4cc(OC)c(OC)cc4cnc3c2cc1OCC`, the TGI with HCT-116 colon, with ACHN renal, with CCRF-CEM leukemia, in the assay with RPMI-8226 leukemia, in the assay on EKVX NSCLC and in the assay on NCI-H460 lung was > 100 µM throughout. Moreover, the TGI with NCI-H23 lung, with SN12C renal, with SK-OV-3 ovarian, in the assay with OVCAR-8 ovarian, with U251 CNS and in the assay on SNB-75 CNS was > 100 µM in each case.

Turning to `O=C(/C=C/c1ccc(O)c(O)c1)OC1C[C@@](O)(C(=O)O)C[C@@H](O)[C@H]1OC(=O)/C=C/c1ccc(O)c(O)c1` (stereo not given in full), the TGI in the assay with HCT-116 colon, with ACHN renal, in the assay with CCRF-CEM leukemia, with RPMI-8226 leukemia, with EKVX NSCLC and with LOX IMVI melanoma was > 100 µM each time. For the same molecule, the TGI in the assay with NCI-H460 lung, in the assay with NCI-H23 lung, with SK-OV-3 ovarian, in the assay on OVCAR-8 ovarian, in the assay with U251 CNS and with HOP-92 NSCLC was > 100 µM throughout.

Consider `CC(/C=C/C(=O)c1sc(-n2nc(-c3ccccc3)cc2-c2ccccc2)nc1C)=C\c1ccccc1`, for which the TGI in the assay on HCT-116 colon, in the assay with ACHN renal, in the assay on CCRF-CEM leukemia, in the assay on RPMI-8226 leukemia, in the assay on EKVX NSCLC and with LOX IMVI melanoma was > 100 µM each time. Also, the TGI was > 100 µM in the assay with NCI-H460 lung; 68.1 µM in the assay with NCI-H23 lung; > 100 µM with SN12C renal; > 100 µM in the assay with SK-OV-3 ovarian; > 100 µM with OVCAR-8 ovarian; > 100 µM with U251 CNS. Also, the GI50 in the assay with EKVX NSCLC is 9.73 µM; in the assay on SNB-75 CNS, 28.4 µM.

For `N#CC(/C(=N\NC(=O)c1ccncc1)C(=O)Nc1ccc([N+](=O)[O-])cc1[N+](=O)[O-])c1nc(-c2ccc(Br)cc2)cs1` (stereo not given), the TGI in the assay on HCT-116 colon, in the assay with ACHN renal, in the assay on CCRF-CEM leukemia, with RPMI-8226 leukemia, in the assay with EKVX NSCLC and with LOX IMVI melanoma was > 100 µM in each case. The TGI in the assay on NCI-H460 lung, in the assay with SK-OV-3 ovarian, in the assay with OVCAR-8 ovarian, with U251 CNS and in the assay on SNB-75 CNS was > 100 µM throughout.

In the case of `COc1cc(OC)c2ssc3c(OC)cc(OC)c4ssc1c2-c43`, the TGI with HCT-116 colon, in the assay with ACHN renal, with CCRF-CEM leukemia, in the assay on EKVX NSCLC, in the assay on LOX IMVI melanoma and in the assay on NCI-H460 lung was > 100 µM in each case. Also, the TGI in the assay with NCI-H23 lung, in the assay on SN12C renal, in the assay with SK-OV-3 ovarian, with OVCAR-8 ovarian, with U251 CNS and in the assay on SNB-75 CNS was > 100 µM each time.

On to `COc1ccc(/C=N/N=C(\N)NO)c(Cl)c1O`, for which the TGI in the assay with HCT-116 colon, with ACHN renal, in the assay with CCRF-CEM leukemia, in the assay with RPMI-8226 leukemia, in the assay on EKVX NSCLC and in the assay with LOX IMVI melanoma was > 100 µM throughout. Moreover, the TGI with NCI-H23 lung was 63.7 µM; in the assay on SN12C renal, > 100 µM; in the assay with SK-OV-3 ovarian it was > 100 µM; in the assay with OVCAR-8 ovarian it was > 100 µM; in the assay on U251 CNS, > 100 µM; in the assay on HOP-92 NSCLC, > 100 µM.

With `O=C(CSc1nnc(Cc2ccccc2)o1)Nc1cccc(Cl)c1`, the TGI in the assay on HCT-116 colon, with ACHN renal, in the assay with CCRF-CEM leukemia, in the assay on RPMI-8226 leukemia, with EKVX NSCLC and with LOX IMVI melanoma was > 100 µM in each case. The TGI in the assay with NCI-H460 lung, in the assay with NCI-H23 lung, with SN12C renal, with SK-OV-3 ovarian, in the assay with OVCAR-8 ovarian and with U251 CNS was > 100 µM in each case. For the same molecule, the TGI with SNB-75 CNS was found to be 89.5 µM.

On to `O=c1cc(-c2ccccc2)oc2cc(OCC(O)COc3ccc4c(=O)cc(-c5ccccc5)oc4c3)ccc12`, for which the TGI in the assay with HCT-116 colon, in the assay on CCRF-CEM leukemia, in the assay with RPMI-8226 leukemia, in the assay on EKVX NSCLC, with LOX IMVI melanoma and in the assay with NCI-H460 lung was > 100 µM throughout. Moreover, the TGI with NCI-H23 lung is > 100 µM; with SK-OV-3 ovarian, 76.7 µM; with OVCAR-8 ovarian, > 100 µM; in the assay with U251 CNS it was 63.1 µM; in the assay on HOP-92 NSCLC, 95.5 µM.
